Reference: EPA's CvTdb concentration-time database

Assays:
Rat [1] = test: concentration in liver after dosing; conditions: 864 h; dosed: Perfluorodecanoic acid; 10 mg/kg; oral; Female; Harlan Sprague Dawley
Rat [2] = test: concentration in liver after dosing; conditions: 1 h; dosed: Perfluorodecanoic acid; 10 mg/kg; oral; Male; Harlan Sprague Dawley
Rat [3] = test: concentration in plasma after dosing; conditions: dosed: Perfluorodecanoic acid, 2 mg/kg, iv, Male, F344
Rat [4] = test: concentration in plasma after dosing; conditions: dosed: Perfluorodecanoic acid, 2 mg/kg, iv, Male, F344; remark: listed apart in the source
Rat [5] = test: concentration in kidney after dosing; conditions: 1 h; dosed: Perfluorodecanoic acid; 10 mg/kg; oral; Male; Harlan Sprague Dawley
Rat [6] = test: concentration in plasma after dosing; conditions: dosed: Perfluorodecanoic acid, 2 mg/kg, iv, Male, F344; remark: listed apart in the source
Rat [7] = test: concentration in plasma after dosing; conditions: 2 min; dosed: dichloroacetic acid; 10 mg/kg; iv; Male; F344
Rat [8] = test: concentration in plasma after dosing; conditions: dosed: dichloroacetic acid, 100 mg/kg, oral, Male, F344
Rat [9] = test: concentration in plasma after dosing; conditions: 9 h; dosed: Primidone; 130 mg/kg; oral; Female; F344
Rat [10] = test: concentration in plasma after dosing; conditions: 5 min; dosed: Wyeth-14643; 2.0 mg/kg; oral; Male; Sprague-Dawley
Rat [11] = test: concentration in plasma after dosing; conditions: dosed: Wyeth-14643, 2.0 mg/kg, oral, Male, Sprague-Dawley
Rat [12] = test: concentration in brain after dosing; conditions: 1 h; dosed: Fluorotelomer alcohol 8+2; 80 mg/kg; oral; Female; Harlan Sprague Dawley
Rat [13] = test: concentration in liver after dosing; conditions: 6 h; dosed: Fluorotelomer alcohol 8+2; 24 mg/kg; oral; Male; Harlan Sprague Dawley
Rat [14] = test: concentration in liver after dosing; conditions: 0.5 h; dosed: Fluorotelomer alcohol 8+2; 80 mg/kg; oral; Female; Harlan Sprague Dawley
Rat [15] = test: concentration in liver after dosing; conditions: 12 h; dosed: Fluorotelomer alcohol 8+2; 24 mg/kg; oral; Male; Harlan Sprague Dawley
Rat [16] = test: concentration in plasma after dosing; conditions: dosed: Fluorotelomer alcohol 8+2, 24 mg/kg, oral, Male, Harlan Sprague Dawley
Rat [17] = test: concentration in kidney after dosing; conditions: 6 h; dosed: Fluorotelomer alcohol 8+2; 24 mg/kg; oral; Male; Harlan Sprague Dawley
Rat [18] = test: concentration in plasma after dosing; conditions: dosed: Fluorotelomer alcohol 8+2, 40 mg/kg, iv, Female, Harlan Sprague-Dawley
Rat [19] = test: concentration in plasma after dosing; conditions: dosed: Fluorotelomer alcohol 8+2, 12 mg/kg, iv, Male, F344
Rat [20] = test: concentration in liver after dosing; conditions: 8 h; dosed: Thiodiglycolic Acid; 20 mg/kg; iv; Female; Harlan Sprague Dawley
Rat [21] = test: concentration in heart after dosing; conditions: 2 h; dosed: Thiodiglycolic Acid; 20 mg/kg; iv; Male; Harlan Sprague Dawley
Rat [22] = test: concentration in heart after dosing; conditions: 5.333 h; dosed: Thiodiglycolic Acid; 20 mg/kg; iv; Female; Harlan Sprague Dawley
Rat [23] = test: concentration in heart after dosing; conditions: 3 h; dosed: Thiodiglycolic Acid; 20 mg/kg; iv; Male; Harlan Sprague Dawley
Rat [24] = test: concentration in liver after dosing; conditions: 4 h; dosed: Thiodiglycolic Acid; 20 mg/kg; iv; Male; Harlan Sprague Dawley
Rat [25] = test: concentration in heart after dosing; conditions: 5.333 h; dosed: Thiodiglycolic Acid; 20 mg/kg; iv; Male; Harlan Sprague Dawley
Rat [26] = test: concentration in heart after dosing; conditions: 4 h; dosed: Thiodiglycolic Acid; 20 mg/kg; iv; Female; Harlan Sprague Dawley
Rat [27] = test: concentration in liver after dosing; conditions: 20 min; dosed: Thiodiglycolic Acid; 20 mg/kg; iv; Female; Harlan Sprague Dawley
Rat [28] = test: concentration in thymus after dosing; conditions: 10 min; dosed: Thiodiglycolic Acid; 20 mg/kg; iv; Male; F344
Rat [29] = test: concentration in plasma after dosing; conditions: 20 min; dosed: Thiodiglycolic Acid; 20 mg/kg; iv; Female; F344
Rat [30] = test: concentration in plasma after dosing; conditions: 1 h; dosed: Thiodiglycolic Acid; 20 mg/kg; iv; Female; Harlan Sprague Dawley
Rat [31] = test: concentration in thymus after dosing; conditions: 5.333 h; dosed: Thiodiglycolic Acid; 20 mg/kg; iv; Female; Harlan Sprague Dawley
Rat [32] = test: concentration in liver after dosing; conditions: 40 min; dosed: Bis 2-Chloroethoxy Methane; 20 mg/kg; iv; Female; F344
Rat [33] = test: concentration in heart after dosing; conditions: 10 min; dosed: Bis 2-Chloroethoxy Methane; 20 mg/kg; iv; Male; F344
Rat [34] = test: concentration in plasma after dosing; conditions: dosed: Bis 2-Chloroethoxy Methane, 40 mg/kg, iv, Male, Harlan Sprague Dawley
Rat [35] = test: concentration in thymus after dosing; conditions: 1 h; dosed: Bis 2-Chloroethoxy Methane; 20 mg/kg; iv; Female; F344
Rat [36] = test: concentration in plasma after dosing; conditions: 40 min; dosed: Di-n-butyl phthalate; 50 mg/kg; oral; Male; Sprague-Dawley
Rat [37] = test: concentration in plasma after dosing; conditions: 10 min; dosed: Di-n-butyl phthalate; 50 mg/kg; oral; Male; Sprague-Dawley

`O=C(O)C(F)(F)C(F)(F)C(F)(F)C(F)(F)C(F)(F)C(F)(F)C(F)(F)C(F)(F)C(F)(F)F` [Perfluorodecanoic acid] gave a concentration in liver (Rat [1]) of 59300 ng/g, a concentration in liver (Rat [2]) of 50300 ng/g and a concentration in plasma (Rat [3]; 1 h) of 6520 ng/mL. The concentration in plasma (Rat [3]; 528 h) was 4120 ng/mL, the concentration in plasma (Rat [3]; 3360 h) was 71.5 ng/mL and the concentration in plasma (Rat [4]; 5 min) was 7460 ng/mL. For the same compound, the concentration in plasma (Rat [4]; 192 h) was 3420 ng/mL, the concentration in plasma (Rat [4]; 2520 h) was 283 ng/mL and the concentration in kidney (Rat [5]) was 10800 ng/g. For the same compound, the concentration in plasma (Rat [6]; 6 h) was 6240 ng/mL and the concentration in plasma (Rat [6]; 864 h) was 2140 ng/mL.
With `O=C(O)C(Cl)Cl` [dichloroacetic acid] the concentration in plasma (Rat [7]) was 30400 ng/mL, the concentration in plasma (Rat [8]; 0.25 h) was 15500 ng/mL and the concentration in plasma (Rat [8]; 6 h) was 29500 ng/mL.
Work on `CCC1(c2ccccc2)C(=O)NC(=O)NC1=O` [Phenobarbital] yielded a concentration in plasma (Rat [9]) of 2440 ng/mL.
Work on `Cc1cccc(Nc2cc(Cl)nc(SCC(=O)O)n2)c1C` yielded a concentration in plasma (Rat [10]) of 401 ng/mL, a concentration in plasma (Rat [11]; 1 h) of 513 ng/mL and a concentration in plasma (Rat [11]; 6 h) of 169 ng/mL.
`OCCC(F)(F)C(F)(F)C(F)(F)C(F)(F)C(F)(F)C(F)(F)C(F)(F)C(F)(F)F` [Fluorotelomer alcohol 8+2] gave a concentration in brain (Rat [12]) of 4990 ng/g, a concentration in liver (Rat [13]) of 1220 ng/g and a concentration in liver (Rat [14]) of 15900 ng/g. The concentration in liver (Rat [15]) was 719 ng/g, the concentration in plasma (Rat [16]; 5 min) was 8.46 ng/mL and the concentration in plasma (Rat [16]; 9 h) was 44.8 ng/mL. For the same compound, the concentration in kidney (Rat [17]) was 366 ng/g, the concentration in plasma (Rat [18]; 0.75 h) was 4710 ng/mL and the concentration in plasma (Rat [18]; 12 h) was 55.5 ng/mL. The concentration in plasma (Rat [19]; 0.5 h) was 1220 ng/mL and the concentration in plasma (Rat [19]; 9 h) was 19.6 ng/mL.
Work on `O=C(O)CSCC(=O)O` [Thiodiglycolic Acid] yielded a concentration in liver (Rat [20]) of 940 ng/g, a concentration in heart (Rat [21]) of 1440 ng/g and a concentration in heart (Rat [22]) of 321 ng/g. The concentration in heart (Rat [23]) was 1040 ng/g, the concentration in liver (Rat [24]) was 43400 ng/g and the concentration in heart (Rat [25]) was 383 ng/g. For the same compound, the concentration in heart (Rat [26]) was 620 ng/g, the concentration in liver (Rat [27]) was 47100 ng/g and the concentration in thymus (Rat [28]) was 9340 ng/g. It also gave a concentration in plasma (Rat [29]) of 7410 ng/mL, a concentration in plasma (Rat [30]) of 2900 ng/mL and a concentration in thymus (Rat [31]) of 1080 ng/g.
Compound `ClCCOCOCCCl` [Bis 2-Chloroethoxy Methane] has a concentration in liver (Rat [32]) of 734 ng/g, a concentration in heart (Rat [33]) of 12300 ng/g and a concentration in plasma (Rat [34]; 40 min) of 8120 ng/mL. The concentration in plasma (Rat [34]; 8 h) was 22 ng/mL and the concentration in thymus (Rat [35]) was 3420 ng/g.
`CCCCOC(=O)c1ccccc1C(=O)O` [Mono-n-butyl phthalate] showed a concentration in plasma (Rat [36]) of 16800 ng/mL and a concentration in plasma (Rat [37]) of 8110 ng/mL.
